{"source": "patent US10426724B2", "about": "“Antihistamine compositions, combinations, and use thereof” (APTAPHARMA INC., priority 2016, dated 2019)", "origin": "cited, not measured here", "target": "histamine H1-receptors (Homo sapiens, UniProt P35367)", "sequence (P35367 whole entry)": "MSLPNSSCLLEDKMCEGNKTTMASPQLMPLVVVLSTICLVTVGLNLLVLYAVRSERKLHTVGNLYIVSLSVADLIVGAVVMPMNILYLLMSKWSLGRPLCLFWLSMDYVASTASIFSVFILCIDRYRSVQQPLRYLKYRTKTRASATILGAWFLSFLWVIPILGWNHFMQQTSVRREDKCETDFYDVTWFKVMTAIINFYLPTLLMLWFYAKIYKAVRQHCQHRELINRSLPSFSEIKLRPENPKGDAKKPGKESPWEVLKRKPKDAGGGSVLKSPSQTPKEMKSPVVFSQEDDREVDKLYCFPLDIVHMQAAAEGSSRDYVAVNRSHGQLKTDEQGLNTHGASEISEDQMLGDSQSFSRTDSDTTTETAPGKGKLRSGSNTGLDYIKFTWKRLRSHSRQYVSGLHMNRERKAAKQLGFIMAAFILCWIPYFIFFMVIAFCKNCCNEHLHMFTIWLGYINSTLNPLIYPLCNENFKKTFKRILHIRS", "settings": "from time of administration to symptomatic relief; Annals of Allergy, Asthma, & Immunology (1997), 79"}
{"smiles": "O=C(O)COCCN1CCN(C(c2ccccc2)c2ccc(Cl)cc2)CC1", "note": "(stereo not shown) [cetirizine]", "values": [{"measurement": "lag time before onset of action", "value": "several hours"}]}
